pIC50: −log10 of the molar value. Starred links: 1 amine or outer side, 2 acyl side, 3 side chain; linkers in the order of their positions; H or OH if unused. Non-standard residues stand in square brackets, D forms with d. Residues, ends and D or L forms follow the SMILES beside them. Groups on a side chain read outwards from the residue. ξ: configuration not given here. *: point of attachment. Oic(3aξ,7aξ) = O=C(O)[C@@H]1CC2CCCCC2N1; X1 = N=C(N)NCCCC[C@H](N)CN*; Dab = NCC[C@H](N)C(=O)O; CO = O=C([*:1])[*:2]
What was measured:
[1] = In vitro enzymatic stability in human blood serum (LC-SWATH-MS); assay type: in vitro ADME; details: human blood serum (pooled from four healthy persons), 37 °C, after 96 h, read-out: compound still intact
Description: Rapid renal clearance and enzymatic degradation are classified as most important disadvantages of peptides as drugs. Covalent linkage to plasma proteins or chemical modifications, including amide bond modifications, might improve their half-lives. We performed proteolytic stability studies in human blood serum to investigate whether the introduction of urea bonds affected the half-lives of compounds from each of synthesized group of hybrids. Compounds 3, 6 and 7 were incubated with human serum at 37 °C. Samples were taken at different time intervals and analyzed using LC-SWATH-MS [88, 89, 90]. […] Hybrids 6 and 7 were stable toward enzymatic degradation, with 50% of each compound still being intact after 96 h (Figure 5). […] Overall, it can be concluded that the substitution of an amide bond with a urea bond has a positive effect on the proteolytic stability of the examined inhibitors.
The study was conducted in full accordance with ethical principles in accordance with the ICH E6 (R2) Guideline for Good Clinical Practice and the Code of Good Customs in Science developed by the Polish Academy of Sciences. Signed consent for using serum was obtained from volunteers. The Rector’s Commission for Ethics of Scientific Research with Human Participation, University of Warsaw, Warsaw, Poland gave the ethical approval (approval number 51/2020). Human blood from four healthy persons was directly drawn into evacuated tubes and left undisturbed at room temperature for 1 h to clot. Tubes were centrifuged at 2500× g for 10 min to prevent possible platelet activation. Serum was pipetted out of the blood collection tubes, pooled and collected in microtubes.
A degradation assay was adapted from a method described previously. Human blood serum was preactivated in Eppendorf ThermoMixer® Comfort (Hamburg, Germany) at 37 °C for 20 min (350 rpm). Next, 20 μL of aqueous urea–peptide hybrid stock solution was added to give ∼750 μg/mL final compound concentration, and incubation was continued. At selected time intervals, 50 μL of the mixture was collected and quenched by adding 200 μL of ACN:H2O:FA mixture (89:10:1, v:v:v). The obtained suspension was vortexed for 1 min (3000 min^−1) and centrifuged for 10 min in 4 °C (11,000× g). 100 μL of supernatant was collected and lyophilized. The samples reconstituted in 1 mL of 10 mM ammonium formate with 0.1% FA were subjected to LC-MS. Relative concentration at time intervals was calculated using peak area of either individual or most intense fragment of compound of interest. Analyst software version 1.7.1 was used for data acquisition, Peak View 2.2 and MultiQuant 2.1 (Sciex, ON) were used for data processing. Detailed analytical data can be found in Supplementary Materials (Figures S17–S45). […]

[2] = target: T1, VEGF-A165/NRP-1 complex (Homo sapiens, UniProt O14786); experiment: Competitive ELISA-like assay, inhibition of bt-VEGF-A165 binding to immobilized NRP-1; details: recombinant human NRP-1, bt-VEGF-A165, chemiluminescence; read-out: IC50, VEGF-A165/NRP-1 complex inhibitory effect
T1 construct: purchased R&D Systems
T1 sequence (O14786 22-641 limits assumed): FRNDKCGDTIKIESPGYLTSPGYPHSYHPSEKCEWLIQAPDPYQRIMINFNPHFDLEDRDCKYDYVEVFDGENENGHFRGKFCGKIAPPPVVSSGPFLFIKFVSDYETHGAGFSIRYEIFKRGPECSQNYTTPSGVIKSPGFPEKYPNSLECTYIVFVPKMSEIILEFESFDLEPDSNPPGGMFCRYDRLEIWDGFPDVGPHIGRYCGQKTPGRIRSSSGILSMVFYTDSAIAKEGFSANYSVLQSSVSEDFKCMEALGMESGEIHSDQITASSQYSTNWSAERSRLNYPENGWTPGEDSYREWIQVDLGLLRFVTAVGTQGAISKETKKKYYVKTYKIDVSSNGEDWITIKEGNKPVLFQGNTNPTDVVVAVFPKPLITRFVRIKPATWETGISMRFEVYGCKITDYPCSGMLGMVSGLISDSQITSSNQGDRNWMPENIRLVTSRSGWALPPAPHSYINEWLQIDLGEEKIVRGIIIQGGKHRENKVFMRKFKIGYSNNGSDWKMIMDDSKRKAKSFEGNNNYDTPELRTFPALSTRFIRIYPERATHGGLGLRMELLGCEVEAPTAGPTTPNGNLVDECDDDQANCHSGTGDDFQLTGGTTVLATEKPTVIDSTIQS
Description: Inhibitory activity of urea–peptide hybrids against VEGF-A165/NRP-1 complex formation was assessed with a screening ELISA-like assay. NRP-1 was immobilized on microplate wells by simple adsorption and urea–peptide hybrids competed for NRP-1 with biotinylated VEGF-A165 (bt-VEGF-A165). The amount of receptor bound bt-VEGF-A165 was visualized by its interaction with the streptavidin–horseradish peroxidase conjugate (strep-HRP) and the chemiluminescent substrate. The first analyzed group of compounds were analogues 1–3 with the urea bond between L1 and L2. […] The best hybrid in this group was compound 3, which had Lys^U (gDab) branching (where “g” corresponds to guanidinium group), but its IC50 value decreased only 2-fold. Therefore, we assume that no additional interactions between urea bond and the surface of the protein occurred. […] In the case of urea–peptide hybrids, the urea bond might be capable of forming additional hydrogen bonds with protein residues on the surface of NRP-1. The affinity of compounds may conceivably be affected by the colocation of the urea bond and the free amino group of hArg in the branching. In addition, for compounds 4–6, we can observe that decreasing the distance between the free amino group in the main chain and the urea bond in the branching has a positive effect on compounds’ affinity for NRP-1.
This method was previously described for NRP-1 [44, 45, 46]. Briefly, overnight coating at 4 °C of the flat bottom surface of a 96-well plate with 100 μL (200 ng/well) recombinant human NRP-1, NRP-2, VEGFR-1 or VEGFR-2 was followed by non-specific interactions blocking using 0.5% bovine serum albumin (BSA) in PBS. Next, 50 µL of urea–peptide hybrid in PBS and 50 µL (400 ng/mL) of human (bt)-VEGF-A165 in PBS containing 4 µg/mL of heparin were added respectively. Plates were incubated for 2 h at RT, and then washed and treated with streptavidin-horseradish peroxidase conjugate in PBS (1:8000). Next, 100 µL chemiluminescent substrate was added, and luminescence was quantified using Tecan Infinite F200Pro microplate reader (Männedorf, Switzerland). In a positive control (P) only (bt)-VEGF-A165 was present in wells. Not coated by receptor wells were treated as a negative control (N). Percentages of inhibition were calculated by the following formula:100% − [[(S − N)/(P − N)]∙100%](1) where S is the signal intensity measured in wells with urea–peptide hybrid. The IC50 of each urea–peptide hybrid was calculated using the nonlinear regression function with GraphPad Prism Version-5.01 (GraphPad Software, San Diego, CA, USA). Data are presented as log (inhibitor) versus normalized response-variable slope (Figure S16). Data are the means ± SEMs of two or three independent experiments, each performed in triplicate.

- remaining at 96 h [1]: 50%
- pIC50 [2]: 6.72
SMILES: N=C(N)NCCCC[C@H](N)CNC(=O)NCC[C@H](N)C(=O)N[C@@H](CCN)C(=O)N1C2CCCCC2C[C@H]1C(=O)N[C@@H](CCCNC(=N)N)C(=O)O (stereo partly drawn) [Compound 6, H-Dab(hArg^U)Dab-Oic-Arg-OH] (H-[Dab]([CO-X1])[Dab][Oic(3aξ,7aξ)]R-OH)
